Test results reported in PubChem BioAssay AID1963958 (Molecular Pharmacology Branch, DTP, NCI, 2024).
pIC50: −log10 of the molar value.

Tested on: MDA-MB-231 multicell spheroids, viability
Assay: Anticancer human tumor MDA-MB-231 cell line growth inhibition [PI3K];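 also: spheroids exposed to agents for seven days before reading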;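 as to viability, T/C: percent of vehicle control luminescence with DMSO treated spheroids as 100%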
Settings: for pIC50: curve of first compound; for viability, T/C: stronger effect = lower value
How it was run: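 Three cell types, namely tumor cells, endothelial cells and mesenchymal stem cells, formed each spheroid. Combinations with four PI3K inhibitors were screened at clinically achievable concentrations decreasing by half-log, and spheroid viability was recorded.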

[1] = second compound 0.0316 µM, first compound 0.0316 µM
[2] = second compound 0.0316 µM, first compound 0.1 µM
[3] = second compound 0.1 µM, first compound 0.0316 µM
[4] = second compound 0.1 µM, first compound 0.1 µM
[5] = second compound 0.316 µM, first compound 0.0316 µM
[6] = second compound 0.316 µM, first compound 0.1 µM
[7] = second compound 1 µM, first compound 0.0316 µM
[8] = second compound 1 µM, first compound 0.1 µM
[9] = second compound 3.16 µM, first compound 0.0316 µM
[10] = second compound 3.16 µM, first compound 0.1 µM
[11] = second compound 10 µM, first compound 0.0316 µM
[12] = second compound 10 µM, first compound 0.1 µM

Compound CC(C)n1nc(-c2ccc3oc(N)nc3c2)c2c(N)ncnc21 + Cc1nc(NC(=O)N2CCCC2C(N)=O)sc1-c1ccnc(C(C)(C)C(F)(F)F)c1 has a pIC50 (second compound 0.0316 µM) of 7.37, a pIC50 (second compound 0.1 µM) of 7.60 and a pIC50 (second compound 0.316 µM) of 7.96. The pIC50 (second compound 1 µM) was 8.20, the pIC50 (second compound 3.16 µM) was 8.32 and the pIC50 (second compound 10 µM) was 8.50. For the same compound, the viability, T/C (second compound 0.0316 µM, first compound 0.000316 µM) was 94%, the viability, T/C (second compound 0.0316 µM, first compound 0.001 µM) was 85.8% and the viability, T/C (second compound 0.0316 µM, first compound 0.00316 µM) was 80.9%. The viability, T/C (second compound 0.0316 µM, first compound 0.01 µM) was 69.3%, the viability, T/C [1] was 55.3% and the viability, T/C [2] was 35.2%. For the same compound, the viability, T/C (second compound 0.1 µM, first compound 0.000316 µM) was 85.7%, the viability, T/C (second compound 0.1 µM, first compound 0.001 µM) was 85.7% and the viability, T/C (second compound 0.1 µM, first compound 0.00316 µM) was 71.2%. It also gave a viability, T/C (second compound 0.1 µM, first compound 0.01 µM) of 65.2%, a viability, T/C [3] of 45.9% and a viability, T/C [4] of 31.3%. The viability, T/C (second compound 0.316 µM, first compound 0.000316 µM) was 73%, the viability, T/C (second compound 0.316 µM, first compound 0.001 µM) was 72% and the viability, T/C (second compound 0.316 µM, first compound 0.00316 µM) was 60.2%. For the same compound, the viability, T/C (second compound 0.316 µM, first compound 0.01 µM) was 50.6%, the viability, T/C [5] was 39.6% and the viability, T/C [6] was 27.7%. The viability, T/C (second compound 1 µM, first compound 0.000316 µM) was 68.3%, the viability, T/C (second compound 1 µM, first compound 0.001 µM) was 58% and the viability, T/C (second compound 1 µM, first compound 0.00316 µM) was 55.5%. It also gave a viability, T/C (second compound 1 µM, first compound 0.01 µM) of 49.1%, a viability, T/C [7] of 35% and a viability, T/C [8] of 23.6%. For the same compound, the viability, T/C (second compound 3.16 µM, first compound 0.000316 µM) was 66.4%, the viability, T/C (second compound 3.16 µM, first compound 0.001 µM) was 63.2% and the viability, T/C (second compound 3.16 µM, first compound 0.00316 µM) was 54.1%. It also gave a viability, T/C (second compound 3.16 µM, first compound 0.01 µM) of 41.4%, a viability, T/C [9] of 34.8% and a viability, T/C [10] of 25.3%. It also gave a viability, T/C (second compound 10 µM, first compound 0.000316 µM) of 62.3%, a viability, T/C (second compound 10 µM, first compound 0.001 µM) of 56% and a viability, T/C (second compound 10 µM, first compound 0.00316 µM) of 50.4%. The viability, T/C (second compound 10 µM, first compound 0.01 µM) was 43.9%, the viability, T/C [11] was 33.8% and the viability, T/C [12] was 28.5%.

For CCCS(=O)(=O)Nc1ccc(F)c(C(=O)c2c[nH]c3ncc(-c4ccc(Cl)cc4)cc23)c1F + Cc1nc(NC(=O)N2CCCC2C(N)=O)sc1-c1ccnc(C(C)(C)C(F)(F)F)c1, the pIC50 (second compound 0.0316 µM) was 5.33, the pIC50 (second compound 0.1 µM) was 5.45 and the pIC50 (second compound 0.316 µM) was 5.60. It also gave a pIC50 (second compound 1 µM) of 5.81, a pIC50 (second compound 3.16 µM) of 5.93 and a pIC50 (second compound 10 µM) of 6.44. For the same compound, the viability, T/C [1] was 102%, the viability, T/C [2] was 102% and the viability, T/C (second compound 0.0316 µM, first compound 0.316 µM) was 85.5%. The viability, T/C (second compound 0.0316 µM, first compound 1 µM) was 80%, the viability, T/C (second compound 0.0316 µM, first compound 3.16 µM) was 59.4% and the viability, T/C (second compound 0.0316 µM, first compound 10 µM) was 31.7%. It also gave a viability, T/C [3] of 90.6%, a viability, T/C [4] of 96.6% and a viability, T/C (second compound 0.1 µM, first compound 0.316 µM) of 83.6%. The viability, T/C (second compound 0.1 µM, first compound 1 µM) was 74.1%, the viability, T/C (second compound 0.1 µM, first compound 3.16 µM) was 51.6% and the viability, T/C (second compound 0.1 µM, first compound 10 µM) was 32.6%. It also gave a viability, T/C [5] of 80.4%, a viability, T/C [6] of 80.8% and a viability, T/C (second compound 0.316 µM, first compound 0.316 µM) of 72.7%. It also gave a viability, T/C (second compound 0.316 µM, first compound 1 µM) of 67.2%, a viability, T/C (second compound 0.316 µM, first compound 3.16 µM) of 45.3% and a viability, T/C (second compound 0.316 µM, first compound 10 µM) of 31.4%. For the same compound, the viability, T/C [7] was 72.3%, the viability, T/C [8] was 66.6% and the viability, T/C (second compound 1 µM, first compound 0.316 µM) was 64.8%. For the same compound, the viability, T/C (second compound 1 µM, first compound 1 µM) was 57.5%, the viability, T/C (second compound 1 µM, first compound 3.16 µM) was 38.9% and the viability, T/C (second compound 1 µM, first compound 10 µM) was 29%. The viability, T/C [9] was 68.8%, the viability, T/C [10] was 64.8% and the viability, T/C (second compound 3.16 µM, first compound 0.316 µM) was 62.3%. For the same compound, the viability, T/C (second compound 3.16 µM, first compound 1 µM) was 51.2%, the viability, T/C (second compound 3.16 µM, first compound 3.16 µM) was 38.8% and the viability, T/C (second compound 3.16 µM, first compound 10 µM) was 25.9%. For the same compound, the viability, T/C [11] was 61.1%, the viability, T/C [12] was 56% and the viability, T/C (second compound 10 µM, first compound 0.316 µM) was 50.3%. For the same compound, the viability, T/C (second compound 10 µM, first compound 1 µM) was 43%, the viability, T/C (second compound 10 µM, first compound 3.16 µM) was 36.8% and the viability, T/C (second compound 10 µM, first compound 10 µM) was 22.3%.
